Results reported in patent publication US6720423B2, “Dihydrobenzofuran and dihydrobenzothiophene 2,4-pentadienoic acid derivatives having selective activity for retinoid X (RXR) receptors” (Allergan, Inc., priority 2002, dated 2004).

Tests used:
RARβ = target: T1, RARβ (Homo sapiens, UniProt P10826); test: ligand binding assay, RARβ; details: second entry of cell, read-out: RAR Bind. Ki (nM) β
T1 sequence (P10826 1-455): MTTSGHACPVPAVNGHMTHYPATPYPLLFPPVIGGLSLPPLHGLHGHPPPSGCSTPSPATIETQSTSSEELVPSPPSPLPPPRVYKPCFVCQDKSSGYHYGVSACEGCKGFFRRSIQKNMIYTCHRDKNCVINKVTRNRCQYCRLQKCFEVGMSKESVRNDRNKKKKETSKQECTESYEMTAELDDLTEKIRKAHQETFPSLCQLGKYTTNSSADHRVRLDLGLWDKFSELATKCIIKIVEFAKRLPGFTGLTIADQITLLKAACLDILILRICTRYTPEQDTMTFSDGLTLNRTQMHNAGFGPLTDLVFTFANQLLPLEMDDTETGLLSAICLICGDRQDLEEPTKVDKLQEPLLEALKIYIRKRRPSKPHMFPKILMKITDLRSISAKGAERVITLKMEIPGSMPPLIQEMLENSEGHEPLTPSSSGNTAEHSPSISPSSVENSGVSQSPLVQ
Excerpt: (§1) A holoreceptor transactivation assay and a ligand binding assay which measure the antagonist/agonist like activity of the compounds of the invention, or their ability to bind to the several retinoid receptor subtypes, respectively, are described in published PCT Application No. WO WO93/11755 (particularly on pages 30-33 and 37-41) published on Jun. 24, 1993, the specification of which is also incorporated herein by reference. A detailed experimental procedure for holoreceptor transactivations has been described by Heyman et al. Cell 68, 397-406, (1992); Allegretto et al. J. Biol. Chem. 268, 26625-26633, and Mangelsdorf et al. The Retinoids: Biology, Chemistry and Medicine, pp 319-349, Raven Press Ltd., New York, which are expressly incorporated herein by reference. The results obtained in this assay are expressed in EC50 numbers, as they are also in the chimeric receptor transactivation assay. The results of ligand binding assay are expressed in Kd numbers. (See Cheng et al. Biochemical Pharmacology Vol. 22 pp 3099-3108, expressly incorporated herein by reference.)

RXRα = target: T2, RXRα (Homo sapiens, UniProt P19793); test: ligand binding assay, RXRα; details: last entry of cell, read-out: RXR Bind Ki (nM) α
T2 sequence (P19793 1-462): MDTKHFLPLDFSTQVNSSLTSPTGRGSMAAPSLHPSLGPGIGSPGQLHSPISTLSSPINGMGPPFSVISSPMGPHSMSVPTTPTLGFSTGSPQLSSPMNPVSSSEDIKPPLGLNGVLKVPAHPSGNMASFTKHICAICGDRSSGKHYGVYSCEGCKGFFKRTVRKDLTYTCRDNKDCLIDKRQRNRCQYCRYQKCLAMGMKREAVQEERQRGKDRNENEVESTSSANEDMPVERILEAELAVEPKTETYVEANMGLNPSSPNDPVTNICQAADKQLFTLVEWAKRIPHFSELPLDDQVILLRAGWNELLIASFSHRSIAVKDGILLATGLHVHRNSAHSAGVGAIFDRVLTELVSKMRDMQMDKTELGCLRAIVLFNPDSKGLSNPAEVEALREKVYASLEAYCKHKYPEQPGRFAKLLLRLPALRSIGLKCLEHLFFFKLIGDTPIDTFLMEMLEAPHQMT
Excerpt: as §1

RXRβ [1] = target: T3, RXRβ (UniProt P28704); test: ligand binding assay, RXRβ; design: other: RXRβ; last entry of cell; details: last entry of cell, read-out: RXR Bind Ki (nM) β
T3 sequence (P28704 1-520): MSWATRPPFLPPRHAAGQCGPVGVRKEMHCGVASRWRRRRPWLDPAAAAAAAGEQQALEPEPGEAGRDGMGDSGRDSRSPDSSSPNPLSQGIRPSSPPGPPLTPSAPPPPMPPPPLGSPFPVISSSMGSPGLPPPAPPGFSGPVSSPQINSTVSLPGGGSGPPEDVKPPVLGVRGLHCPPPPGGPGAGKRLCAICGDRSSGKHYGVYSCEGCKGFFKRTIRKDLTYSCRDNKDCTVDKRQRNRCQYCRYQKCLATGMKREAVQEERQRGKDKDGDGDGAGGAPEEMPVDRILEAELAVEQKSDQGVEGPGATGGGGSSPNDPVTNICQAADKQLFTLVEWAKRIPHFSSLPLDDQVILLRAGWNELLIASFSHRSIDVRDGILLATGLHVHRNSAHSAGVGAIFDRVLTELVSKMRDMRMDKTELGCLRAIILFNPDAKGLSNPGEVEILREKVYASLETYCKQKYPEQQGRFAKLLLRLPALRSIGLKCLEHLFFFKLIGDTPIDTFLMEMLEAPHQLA
Excerpt: as §1

RXRβ [2] = target: T3, RXRβ; test: receptor transactivation assay, RXRβ; format: cell-based; design: RXR Trans; other: RXRβ; first entry of cell; details: for EC50: first entry of cell, read-out: RXR Trans. EC50 (nM) β; for RXR Trans. β, number in parentheses after EC50: parenthesised number, not defined in the patent
Excerpt: as §1

RXRγ = target: T4, RXRγ (UniProt P28705); test: receptor transactivation assay, RXRγ; format: cell-based; design: RXR Trans; other: RXRγ; first entry of cell; details: for EC50: first entry of cell, read-out: RXR Trans. EC50 (nM) γ; for RXR Trans. γ, number in parentheses after EC50: parenthesised number, not defined in the patent
T4 sequence (P28705 1-463): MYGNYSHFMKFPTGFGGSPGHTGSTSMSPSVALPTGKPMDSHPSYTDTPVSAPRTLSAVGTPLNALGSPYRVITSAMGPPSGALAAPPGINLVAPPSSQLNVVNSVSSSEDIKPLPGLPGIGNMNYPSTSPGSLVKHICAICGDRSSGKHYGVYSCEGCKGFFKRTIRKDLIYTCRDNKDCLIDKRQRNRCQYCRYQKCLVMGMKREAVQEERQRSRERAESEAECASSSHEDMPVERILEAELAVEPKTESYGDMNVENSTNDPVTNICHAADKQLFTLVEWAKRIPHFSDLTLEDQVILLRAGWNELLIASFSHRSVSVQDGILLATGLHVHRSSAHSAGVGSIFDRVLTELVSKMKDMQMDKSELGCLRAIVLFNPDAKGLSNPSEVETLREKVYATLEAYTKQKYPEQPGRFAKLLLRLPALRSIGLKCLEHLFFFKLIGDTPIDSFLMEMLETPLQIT
Excerpt: as §1

Ki (RARβ)	Ki (RXRα)	Ki (RXRβ [1])	EC50 (RXRβ [2])	RXR Trans. β, number in parentheses after EC50 (RXRβ [2])	EC50 (RXRγ)	RXR Trans. γ, number in parentheses after EC50 (RXRγ)	Structure (SMILES)
> 10000 nM	7.8 nM	21.1 nM	9.8 nM	106	2.7 nM	119	CC(/C=C/[C@@H]1C[C@]1(C)c1ccc2c(c1)C(C)(C)CO2)=C\C(=O)O [Compound 2, (6S,7S)-7-[5-(3,3-Dimethyl-2,3-dihydro-benzofuranyl)]-6.7-methano-3-methyl-octa-2E,4E-dienoic Acid]
> 10000 nM	6.3 nM	74 nM	21 nM	108	4.4 nM	108	CC(/C=C/[C@@H]1C[C@]1(C)c1cc(C)c2c(c1)C(C)(C)CO2)=C\C(=O)O [Compound 4, (6S,7S)-7-[5-(3,3,7-Trimethyl-2,3-dihydro-benzofuranyl)]-6,7-methano-3-methyl-octa-2E,4E-dienoic acid]
> 30000 nM	0.72 nM	1.8 nM	2.8 nM	75	0.56 nM	85	CCc1cc([C@@]2(C)C[C@H]2/C=C/C(C)=C/C(=O)O)cc2c1OCC2(C)C [Compound 6]
41000 nM	1.7 nM	10.6 nM	0.66 nM	110	0.23 nM	108	CC(/C=C/[C@@H]1C[C@]1(C)c1cc(C(C)C)c2c(c1)C(C)(C)CO2)=C\C(=O)O [Compound 8, (6S,7S)-7-[5-(3,3-Dimethyl-7-iso-propyl-2,3-dihydro-benzofuranyl)]-6,7-methano-3-methyl-octa-2E,4E-dienoic Acid]
19000 nM	0.8 nM	7.1 nM	12 nM	90	0.78 nM	95	CC(/C=C/[C@@H]1C[C@]1(C)c1cc(C(C)(C)C)c2c(c1)C(C)(C)CO2)=C\C(=O)O [Compound 10, (6S,7S)-7-[5-(3,3-Dimethyl-7-t-butyl-2,3-dihydro-benzofuranyl)]-6,7-methano-3-methyl-octa-2E,4E-dienoic acid]
9510 nM	0.2 nM	1.5 nM	1.67 nM	93	0.42 nM	101	CC(/C=C/[C@@H]1C[C@]1(C)c1cc(CC(C)(C)C)c2c(c1)C(C)(C)CO2)=C\C(=O)O [Compound 12, 5-{(1S,2S) 2-[7-(2,2-Dimethyl-propyl)-3,3-dimethyl-2,3-dihydro-benzofuran-5-yl]-2-methyl-cyclopropyl}-3-methyl-penta-2E,4E-dienoic Acid]
4770 nM	0.8 nM	1.1 nM	0.515 nM	114	0.0973 nM	105	CC(/C=C/[C@@H]1C[C@]1(C)c1cc(Cc2ccccc2)c2c(c1)C(C)(C)CO2)=C\C(=O)O [Compound 14, (6S,7S)-7-[5-(7-Benzyl-3,3-dimethyl-2,3-dihydro-benzofuranyl)]-6,7-methano-3-methyl-octa-2E,4E-dienoic Acid]
9290 nM	0.3 nM	1.9 nM	1.15 nM	85	0.29 nM	83	CC(/C=C/[C@@H]1C[C@]1(C)c1cc(CC2CCCCC2)c2c(c1)C(C)(C)CO2)=C\C(=O)O [Compound 16, (6S,7S)-7-[5-(7-Cyclohexylmethyl-3,3-dimethyl-2,3-dihydro-benzofuranyl)]-6,7-methano-3-methyl-octa-2E,4E-dienoic Acid]
15000 nM	1.9 nM	5.1 nM	2.8 nM	96	0.36 nM	99	CCCCCCc1cc([C@@]2(C)C[C@H]2/C=C/C(C)=C/C(=O)O)cc2c1OCC2(C)C [Compound 18, (6S,7S)-7-[5-(3,3-Dimethyl-7-hexyl-2,3-dihydro-benzofuranyl)]-6,7-methano-3-methyl-octa-2E,4E-dienoic acid]
> 10000 nM	7.1 nM	21.5 nM	12 nM	108	3.4 nM	111	CC(/C=C/[C@@H]1C[C@]1(C)c1cc(Br)c2c(c1)C(C)(C)CO2)=C\C(=O)O [Compound 20, (6S,7S)-7-[5-(7-Bromo-3,3-dimethyl-2,3-dihydro-benzofuranyl)]-6,7-methano-3-methyl-octa-2E,4E-dienoic Acid]
> 10000 nM	2.3 nM	9.6 nM	28.4 nM	75	12.8 nM	110	CC(/C=C/[C@@H]1C[C@]1(C)c1cc(-c2ccccc2)c2c(c1)C(C)(C)CO2)=C\C(=O)O [Compound 22, 6S,7S)-7-[5-(3,3-Dimethyl-7-phenyl-2,3-dihydro-benzofuranyl)1-6,7-methano-3-methyl-octa-2E,4E-dienoic acid]
> 10000 nM	0.7 nM	2.6 nM	6.7 nM	125	0.86 nM	105	CC(/C=C/[C@@H]1C[C@]1(C)c1cc(-c2c(C)cccc2C)c2c(c1)C(C)(C)CO2)=C\C(=O)O [Compound 24, 5-{(1 S 2S)-2-[7-(2,6-Dimethyl-phenyl)-3,3-dimethyl-2,3-dihydro-benzofuran-5-yl]-2-methyl-cyclopropyl}-3-methyl-penta-2E,4E-dienoic acid]
